In brackets after ≈: the same amount, converted by molar mass. Read-outs that look alike come from different tables or passages of the source. Where a SMILES comes first, the peptide text is derived from it. [ ]: non-standard residue; d: D form. Leu(ol) = CC(C)C[C@H](N)CO; Aib = CC(C)(N)C(=O)O
What was measured:
[1] = system: human breast cancer (MDA-MB-231); test: cells; assay type: cell-based; details: MTT, mean ± SD of three experiments, read-out: IC50 ± standard deviation
Experimental: (§1) The cytotoxicity testing of compound 1 was performed against various cell lines, which includes human lung cancer (A549), human colon cancer (LS-180), human myeloid leukemia (HL-60) and human breast cancer (MDA-MB-231) using MTT (3-(4,5-dimethylthiazole-2-yl)-2,5-diphenyltetrazolium bromide). Herein, paclitaxel was used as positive control for cytotoxic assay. […] Further, the cell-cycle assay was performed on HL-60 cell lines. The compound 1 was treated against HL-60 cells at concentrations 5, 10, 20 and 30 μM and incubated for 24 h. […] Apoptotic bodies are small DNA fragments wrapped around the single membrane vesicles mainly formed when cells undergo apoptosis. These apoptotic bodies can be visualized under a fluorescent microscope by using DNA staining dyes such as 4′,6-diamidino-2-phenylindole (DAPI). The HL-60 cells were incubated with the compound 1 at different concentrations (5, 10, 20 and 30 μM) for 24 h. […] The % apoptosis is also represented graphically in Fig. 7.
(§2) The cytotoxic effect of compound 1 on cancer cells was assayed by using MTT dye. The HL-60 cell lines were seeded for 4 h in round bottom 96 well plates. It was then treated with different concentrations of compound 1 dissolved in DMSO and incubated for 48 h. With 3 h earlier to experiment termination, the MTT dye (20 μL) from the stock solution of 2.5 mg mL^−1 was added to each well. The MTT-formazan crystals thus formed were dissolved in DMSO (160 μL) and observed at 570 nm. The untreated control culture was treated with DMSO (<0.2%).

human lung cancer (A549) = test: cells; assay type: cell-based; details: MTT, mean ± SD of three experiments, read-out: IC50 ± standard deviation
Experimental: as §1, §2

[2] = system: human colon cancer (LS-180); test: cells; assay type: cell-based; details: mean ± SD of three experiments, read-out: IC50 ± standard deviation
Experimental: as §1, §2

[3] = system: human myeloid leukemia (HL-60); test: cells; assay type: cell-based; details: MTT, mean ± SD of three experiments, read-out: IC50 ± standard deviation
Experimental: as §1, §2

M. tuberculosis H37Rv [4] = test: microbe, parasite or virus in culture; details: Mycobacterium tuberculosis, read-out: Minimum Inhibitory Concentration (MIC)
HL-60 cells [5] = test: Nuclear morphology, DAPI staining, fluorescence microscopy; assay type: cell-based, human; details: HL-60, 5, 10, 20 and 30 μM, 24 h
Experimental: as §1
HL-60 cells were incubated with compound 1 in a 12 well plate. After 24 h, cells were centrifuged at 400 × g, collected and washed two times with PBS. The cells were fixed using 1 mL solution of cold acetic acid in methanol (1 : 3) and incubated overnight at 4 °C. Further, the cells were centrifuged at 400 × g, collected and re-suspended in fixing solution (100 μL). […]

HL-60 cells [6] = test: Cell cycle analysis, propidium iodide staining, flow cytometry; assay type: cell-based, human; details: 24 h, PI staining
Experimental: as §1
The cell cycle phase distribution analysis in HL-60 cells was carried out by propidium iodide (PI) staining. The HL-60 cells were treated with different concentration (5, 10, 20 and 30 μM) of 1. After 24 h, the cells were centrifuged and collected at 400 × g and washed two times with PBS followed by fixing with ice-cold ethanol (70%). It was incubated overnight at 4 °C. Next day, cells were centrifuged at 4000 rpm, collected and washed with PBS followed by incubation with RNase (0.2 mg mL^−1) for 90 min at 37 °C. It was then stained with PI (10 μg mL^−1) and kept for 30 min in dark. The analysis of cells were carried out through flow-cytometer (FACS Calibur, Becton Dickinson) using list mode on 10 000 events for FL2-A vs. FL2-W. The ModFit software was used for the calculation of fluorescence intensity of the sub-G1 cell fraction representing the apoptotic cell population.

M. tuberculosis H37Rv [7] = details: 48 h
[8] = 48 h incubation, read at 570 nm

CC(=O)O[C@H]1C(=O)[C@@]2(C)[C@H]([C@H](OC(=O)c3ccccc3)[C@]3(O)C[C@H](OC(=O)[C@H](O)[C@@H](NC(=O)c4ccccc4)c4ccccc4)C(C)=C1C3(C)C)[C@]1(OC(C)=O)CO[C@@H]1C[C@@H]2O [Paclitaxel, paclitaxel, reference compound]
IC50 ([1]; Homo sapiens, positive control): 3.3 ± 0.1 nM | IC50 (human lung cancer (A549); Homo sapiens, positive control): 6.2 ± 0.1 nM | IC50 ([2]; Homo sapiens, LS180, MTT, positive control): 2.2 ± 0.1 nM | IC50 ([3]; Homo sapiens, positive control): 1.8 ± 0.1 nM

CO[C@H]1/C=C/O[C@@]2(C)Oc3c(C)c(O)c4c(O)c(c(/C=N/N5CCN(C)CC5)c(O)c4c3C2=O)NC(=O)/C(C)=C\C=C\[C@H](C)[C@H](O)[C@@H](C)[C@@H](O)[C@@H](C)[C@H](OC(C)=O)[C@@H]1C [Rifampicin]
MIC (M. tuberculosis H37Rv [4]): 0.06 µg/mL (≈ 0.0729 µM)

CC(=O)NC(C)(C)C(=O)N[C@@H](CCC(N)=O)C(=O)N[C@@H](CC(C)C)C(=O)NC(C)(C)C(=O)N1CCC[C@H]1C(=O)N[C@H](C(=O)N[C@@H](CC(C)C)C(=O)NC(C)(C)C(=O)N1CCC[C@H]1C(=O)NC(C)(C)C(=O)NC(C)(C)C(=O)NC(C)(C)C(=O)N1CCC[C@H]1C(=O)N[C@H](CO)CC(C)C)C(C)C [compound 1, Velutibol A] (Ac-[Aib]QL[Aib]PVL[Aib]P[Aib][Aib][Aib]P[Leu(ol)])
Formation of apoptotic bodies (HL-60 cells [5]): increased in a dose-dependent manner | Apop (apoptotic DNA population, sub-G1) (HL-60 cells [6]; HL-60, 10 μM): 70% | Apop (apoptotic DNA population, sub-G1) (HL-60 cells [6]; HL-60, 20 μM): 85% | Apop (apoptotic DNA population, sub-G1) (HL-60 cells [6]; HL-60, 30 μM): 99% | IC50 [1, 8]: 7000 ± 200 nM | IC50 (human lung cancer (A549); [8]): 23000 ± 800 nM | IC50 ([2]; MTT, 48 h incubation, read at 570 nm): 26000 ± 1100 nM | IC50 [3, 8]: 4000 ± 100 nM | Minimum Inhibitory Concentration (MIC) (M. tuberculosis H37Rv [7]): 32 µg/mL
